{"source": "patent US20220110902A1", "about": "“Methods of treating amyloid-beta peptide diseases” (Ecole Polytechnique Federale de Lausanne, priority 2016, published 2022)", "system": "old C57BL/6J mice", "experiment": "NR treatment of aged C57BL/6J mice: muscle amyloid, Oxphos proteins, MSR", "format": "in vivo, mouse", "procedure": "Young (1 month old) and aged (20-24 months old) C57BL/6JRj mice were purchased from Janvier Labs. APP/PSEN1 mice (Tg(APPswe,PSEN1dE9)85Dbo/Mmjax) were purchased from JAX. C57BL/6JR mice were fed with pellets containing vehicle or NR (400 mg/kg/day) for 6-8 weeks, while APP/PSEN1 mice were fed NR pellets for 10 weeks, starting at the age of 4 months. The pellets were prepared by mixing powdered chow diet (20165, Harlan Laboratories) with water or with NR dissolved in water. Pellets were dried under a laminar flow hood for 48 hours. Mice were housed by groups of 2 to 5 animals per cage and randomized to 7-8 animals per experimental group according to their body weight. No blinding was used during the experiment procedures. Mouse: Total RNA was extracted from tissues using TriPure RNA isolation reagent (Roche) according to the product manual. Expression of selected genes was analyzed using the LightCycler480 system (Roche) and LightCycler® 480 SYBR Green I Master reagent (Roche). The beta-2-Microglobulin B2m gene was used as housekeeping reference. Mouse: Frozen cortex tissue samples were lysed by mechanical homogenization with RIPA buffer containing protease and phosphatase inhibitors, and analyzed by SDS-PAGE and western blot. Subsequently, the concentration of extracted protein was determined by using the Bio-Rad Protein Assay. Proteins were detected using the following antibodies: HSP60 (Enzo Life Science), CLPP (Sigma), anti-GAPDH (14C10) (Cell Signaling), LONP1 (Sigma), PINK1 (Novus Biologicals), LC3 A/B (Cell Signaling), SDHB (Oxphos cocktail, Abcam), MTCO1 (Abcam), Ubiquitin (Enzo), P62 (BD Transduction Laboratories), Phopsho P62 (Cell Signaling), VDAC (Abcam), β-Amyloid, 17-24 (4G8) (BioLegend). In addition to the housekeeping proteins, loading was monitored by Ponceau Red to ensure a homogeneous loading. Antibody detection reactions for all the immunoblot experiments were developed by enhanced chemiluminescence (Advansta) and imaged using the c300 imaging system (Azure Biosystems). Pixel intensity was quantified by using ImageJ software. […]"}
{"compound": "NC(=O)c1ccc[n+]([C@@H]2O[C@H](CO)[C@@H](O)[C@H]2O)c1", "note": "[NR, Nicotinamide Riboside triflate]", "values": [{"measurement": "SDHB and MTCO1 protein levels in muscle", "setting": "aged mice, NR 400 mg/kg/day for 6-8 weeks", "result": "partially restoring"}, {"measurement": "A11- and 4G8 positive amyloid-like deposits in TA and forelimbs muscle", "setting": "old mice, NR 400 mg/kg/day in pellets for 6-8 weeks", "result": "marked reduction"}, {"measurement": "expression of MSR signature genes in muscle", "setting": "quadriceps, NR 400 mg/kg/day for 6-8 weeks", "result": "increasing"}]}
